From ChEMBL document CHEMBL5321287, “Discovery, Synthesis, and Evaluation of Novel Dual Inhibitors of a Vascular Endothelial Growth Factor Receptor and Poly(ADP-Ribose) Polymerase for BRCA Wild-Type Breast Cancer Therapy” (J Med Chem, 2023)
The source made the active and inactive calls. The rule behind the calls is not given here.

Legend:
[1] = target: Vascular endothelial growth factor receptor 2 (Homo sapiens, UniProt P35968); test: Inhibition of VEGFR2 (unknown origin) by Z'-Lyte kinase assay
Sequence of Vascular endothelial growth factor receptor 2 (P35968 whole entry): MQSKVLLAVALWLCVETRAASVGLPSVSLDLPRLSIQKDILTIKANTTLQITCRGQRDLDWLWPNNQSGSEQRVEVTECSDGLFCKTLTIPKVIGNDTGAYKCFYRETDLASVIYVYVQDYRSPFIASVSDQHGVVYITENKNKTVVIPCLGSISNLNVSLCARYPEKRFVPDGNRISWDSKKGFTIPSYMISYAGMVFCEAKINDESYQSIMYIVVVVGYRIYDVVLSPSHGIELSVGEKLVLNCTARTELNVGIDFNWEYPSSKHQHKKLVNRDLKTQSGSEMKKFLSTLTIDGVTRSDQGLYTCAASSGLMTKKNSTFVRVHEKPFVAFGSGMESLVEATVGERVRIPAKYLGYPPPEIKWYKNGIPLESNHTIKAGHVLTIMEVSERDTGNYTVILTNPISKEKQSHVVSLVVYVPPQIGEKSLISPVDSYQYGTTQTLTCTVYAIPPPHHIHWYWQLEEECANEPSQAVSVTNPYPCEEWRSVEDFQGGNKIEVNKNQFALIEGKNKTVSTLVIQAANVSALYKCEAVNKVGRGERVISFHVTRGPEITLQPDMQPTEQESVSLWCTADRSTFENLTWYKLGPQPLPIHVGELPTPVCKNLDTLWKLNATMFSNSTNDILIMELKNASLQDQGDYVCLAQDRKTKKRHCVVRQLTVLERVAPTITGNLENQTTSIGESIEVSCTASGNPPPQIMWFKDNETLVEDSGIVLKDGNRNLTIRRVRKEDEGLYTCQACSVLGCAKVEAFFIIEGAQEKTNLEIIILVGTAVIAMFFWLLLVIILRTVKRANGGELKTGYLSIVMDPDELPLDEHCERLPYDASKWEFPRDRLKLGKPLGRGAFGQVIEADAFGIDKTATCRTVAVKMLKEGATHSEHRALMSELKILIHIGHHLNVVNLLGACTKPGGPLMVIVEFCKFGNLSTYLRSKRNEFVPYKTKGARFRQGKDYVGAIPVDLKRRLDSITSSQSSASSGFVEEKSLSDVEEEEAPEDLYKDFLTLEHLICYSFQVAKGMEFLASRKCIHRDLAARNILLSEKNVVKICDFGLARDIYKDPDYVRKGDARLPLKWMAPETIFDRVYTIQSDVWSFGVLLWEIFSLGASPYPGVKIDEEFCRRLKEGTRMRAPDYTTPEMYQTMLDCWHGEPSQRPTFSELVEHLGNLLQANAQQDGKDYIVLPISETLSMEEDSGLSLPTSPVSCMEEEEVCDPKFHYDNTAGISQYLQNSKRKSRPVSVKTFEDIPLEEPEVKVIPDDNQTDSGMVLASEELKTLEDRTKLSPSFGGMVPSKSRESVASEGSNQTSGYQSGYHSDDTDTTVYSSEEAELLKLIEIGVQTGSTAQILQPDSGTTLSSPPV

[2] = target: T1, Poly [ADP-ribose] polymerase 1 (Homo sapiens, UniProt P09874); test: Inhibition of PARP1 (unknown origin)
T1 sequence (P09874 whole entry): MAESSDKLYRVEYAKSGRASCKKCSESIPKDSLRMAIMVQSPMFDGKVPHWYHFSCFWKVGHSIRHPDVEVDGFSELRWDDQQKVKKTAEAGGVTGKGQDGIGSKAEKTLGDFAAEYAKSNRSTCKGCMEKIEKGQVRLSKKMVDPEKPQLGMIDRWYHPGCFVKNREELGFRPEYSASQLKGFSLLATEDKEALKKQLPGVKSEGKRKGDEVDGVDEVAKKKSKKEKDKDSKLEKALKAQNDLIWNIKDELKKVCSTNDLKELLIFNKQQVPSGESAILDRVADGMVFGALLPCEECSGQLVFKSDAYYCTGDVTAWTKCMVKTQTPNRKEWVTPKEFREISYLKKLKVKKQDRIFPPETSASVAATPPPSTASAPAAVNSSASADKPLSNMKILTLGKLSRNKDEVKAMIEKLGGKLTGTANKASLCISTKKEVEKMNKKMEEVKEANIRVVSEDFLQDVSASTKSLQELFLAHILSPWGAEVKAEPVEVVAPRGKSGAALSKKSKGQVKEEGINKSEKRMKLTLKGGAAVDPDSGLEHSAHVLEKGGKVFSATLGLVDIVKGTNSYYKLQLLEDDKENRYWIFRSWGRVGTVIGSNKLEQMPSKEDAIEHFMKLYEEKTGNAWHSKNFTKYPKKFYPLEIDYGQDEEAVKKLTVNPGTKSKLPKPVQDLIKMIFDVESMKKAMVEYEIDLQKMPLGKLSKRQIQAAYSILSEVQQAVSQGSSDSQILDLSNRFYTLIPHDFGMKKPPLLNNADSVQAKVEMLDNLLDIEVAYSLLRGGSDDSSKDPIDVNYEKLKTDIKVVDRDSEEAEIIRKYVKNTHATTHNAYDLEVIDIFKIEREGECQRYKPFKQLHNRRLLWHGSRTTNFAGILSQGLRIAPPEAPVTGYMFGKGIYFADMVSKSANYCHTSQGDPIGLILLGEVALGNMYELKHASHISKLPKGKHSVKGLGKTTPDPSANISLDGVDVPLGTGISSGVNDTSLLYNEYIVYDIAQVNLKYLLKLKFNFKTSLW

MCF7 [3] = test: Antiproliferative activity against human MCF7 cells assessed as cell growth inhibition
[4] = target: T1, Poly [ADP-ribose] polymerase 1; settings: MDA-MB-231, dose 50.0 mg/kg, route po, time 14.0 day
MDA-MB-231 [5] = test: cells; settings: Homo sapiens
MDA-MB-436 [6] = test: Antiproliferative activity against human MDA-MB-436 cells assessed as cell growth inhibition
HCC1937 [7] = test: cells; settings: Homo sapiens
MCF7 [8] = test: cells; settings: Homo sapiens
MDA-MB-436 [9] = test: cells; settings: Homo sapiens
HUVEC = test: cells; settings: Homo sapiens, 48 h
MDA-MB-231 [10] = test: Antiproliferative activity against human MDA-MB-231 cells assessed as cell growth inhibition
HCC1937 [11] = test: Antiproliferative activity against human HCC1937 cells assessed as cell growth inhibition

Row | Structure (SMILES) | IC50 [1] [µM] | IC50 [2] [µM] | IC50 (MCF7 [3]) [µM] | IC50 (MDA-MB-231 [10]) [µM] | also measured
1 | Cc1c2ccc(N(C)c3nc(Nc4ccc(-c5nc6c(C(N)=O)cccc6[nH]5)cc4)nc4ccsc34)cc2nn1C | > 10 |  |  |  | 
2 | O=C(c1cc(Cc2n[nH]c(=O)c3ccccc23)ccc1F)N1CCN(C(=O)C2CC2)CC1 [OLAPARIB] |  |  | > 10 | > 10 | inhibition [4]: Active; IC50 (MDA-MB-231 [5]): > 10 µM; IC50 (MDA-MB-436 [6]): 9 µM; IC50 (HCC1937 [7]): > 10 µM; IC50 (MCF7 [8]): > 10 µM; IC50 (MDA-MB-436 [9]): > 10 µM; IC50 (HUVEC): 4.6 µM; IC50 (HCC1937 [11]): 6.51 µM
3 | CN1CCN(C2CCN(c3ccnc(Nc4ccc(-c5nc6c(C(N)=O)cccc6[nH]5)cc4)n3)CC2)CC1 | > 10 |  |  |  | 
4 | NC(=O)c1cccc2[nH]c(-c3ccc(Nc4nccc(N5CCN(c6ccc(C(F)(F)F)cn6)CC5)n4)cc3)nc12 |  | 0.0982 |  |  | 
5 | CN(c1ccc(Cl)cc1)c1ccnc(Nc2ccc(-c3nc4cc(F)c(F)cc4[nH]3)cc2)n1 | 0.427 | 0.661 | > 10 | > 10 | 
6 | CC(C)c1ccc(N(C)c2ccnc(Nc3ccc(-c4nc5c(C(N)=O)cccc5[nH]4)cc3)n2)cc1 |  | 0.0897 |  |  | 
7 | Cc1c2ccc(N(C)c3ccnc(Nc4ccc(-c5nc6cc(F)c(F)cc6[nH]5)c(Cl)c4)n3)cc2nn1C |  | 0.759 |  |  | 
8 | Cc1c2ccc(N(C)c3ccnc(Nc4cccc(-c5nc6cc(F)c(F)cc6[nH]5)c4)n3)cc2nn1C | 0.19 | 0.647 | 7.2 | 2.3 | 
9 | CN(c1ccc(N2CCOCC2)c(F)c1)c1ccnc(Nc2ccc(C(=O)Nc3nc4ccccc4[nH]3)cc2)n1 | 0.728 | > 10 | > 10 | > 10 | 
10 | NC(=O)c1cccc2[nH]c(NC(=O)c3ccc(Nc4nccc(N5CCN(C(=O)c6ccccc6)CC5)n4)cc3)nc12 |  | 0.194 |  |  | 
11 | Cc1ccc(Nc2nccc(N(C)c3ccc4c(C)n(C)nc4c3)n2)cc1-c1nc2ccccc2[nH]1 | 0.171 |  |  |  | 
12 | CS(=O)(=O)N1CCN(c2ccnc(Nc3ccc(-c4nc5c(C(N)=O)cccc5[nH]4)cc3)n2)CC1 | > 10 |  |  |  | 
13 | NC(=O)c1cccc2[nH]c(-c3ccc(Nc4nccc(N5CCN(C(=O)c6ccccc6)CC5)n4)cc3)nc12 | > 10 | 0.128 | > 10 | > 10 | 
14 | CN(c1ccc2ncccc2c1)c1ccnc(Nc2ccc(-c3nc4c(C(N)=O)cccc4[nH]3)cc2)n1 | 0.659 |  |  |  | 
15 | CN(c1ccc(S(C)(=O)=O)cc1)c1ccnc(Nc2ccc(-c3nc4c(C(N)=O)cccc4[nH]3)cc2)n1 | > 10 |  |  |  | 
16 | COc1ccc(-c2nc3cc(F)c(F)cc3[nH]2)cc1Nc1nccc(N(C)c2ccc3c(C)n(C)nc3c2)n1 | 0.2 |  |  |  | 
17 | Cc1ccc(Nc2nccc(N(C)c3ccc4c(C)n(C)nc4c3)n2)cc1-c1nc2cc(F)c(F)cc2[nH]1 |  | 0.682 |  |  | 
18 | COc1cc(Nc2nccc(N(C)c3ccc4c(C)n(C)nc4c3)n2)ccc1-c1nc2cc(F)c(F)cc2[nH]1 | 0.165 |  |  |  | 
19 | CN(c1ccc(F)cc1)c1ccnc(Nc2ccc(-c3nc4c(C(N)=O)cccc4[nH]3)cc2)n1 |  | 0.13 |  |  | 
20 | CN(c1ccc(N2CCOCC2)cc1)c1ccnc(Nc2ccc(-c3nc4c(C(N)=O)cccc4[nH]3)cc2)n1 | > 10 | 0.087 | 8.93 | 9.72 | 
21 | CC(C)c1ccc(N(C)c2ccnc(Nc3ccc(-c4nc5cc(F)c(F)cc5[nH]4)cc3)n2)cc1 | 0.501 |  |  |  | 
22 | CN(c1ccnc(Nc2ccc(-c3nc4c(C(N)=O)cccc4[nH]3)cc2)n1)c1cc(C(C)(C)C)n(C)n1 | > 10 |  |  |  | 

The next lines start with results.

Row | IC50 [1] [µM] | IC50 [2] [µM] | IC50 (MCF7 [3]) [µM] | IC50 (MDA-MB-231 [10]) [µM] | Structure (SMILES) | also measured
23 |  | 0.0957 |  |  | Cc1c2ccc(N(C)c3ccnc(Nc4ccc(-c5nc6c(C(N)=O)cccc6[nH]5)cc4)n3)cc2nn1C | 
24 | > 10 |  |  |  | Cc1cnc(Nc2ccc(-c3nc4c(C(N)=O)cccc4[nH]3)cc2)nc1N(C)c1ccc2c(C)n(C)nc2c1 | 
25 | 0.169 |  |  |  | COc1cc(Nc2nccc(N(C)c3ccc4c(C)n(C)nc4c3)n2)ccc1-c1nc2c(C(N)=O)cccc2[nH]1 | 
26 |  | 0.673 |  |  | Cc1c2ccc(N(C)c3ccnc(Nc4ccc(-c5nc6cc(F)c(F)cc6[nH]5)c(C(F)(F)F)c4)n3)cc2nn1C | 
27 |  | 0.166 |  |  | Cc1c2ccc(N(C)c3ccnc(Nc4ccc(C(=O)Nc5nc6c(C(N)=O)cccc6[nH]5)c(Cl)c4)n3)cc2nn1C | 
28 |  | 0.137 |  |  | CN(c1ccc(Cl)cc1)c1ccnc(Nc2ccc(C(=O)Nc3nc4c(C(N)=O)cccc4[nH]3)cc2)n1 | 
29 |  | 0.0827 |  |  | Cc1c2ccc(N(C)c3ccnc(Nc4cccc(-c5nc6c(C(N)=O)cccc6[nH]5)c4)n3)cc2nn1C | 
30 | 0.267 | 0.164 | > 10 |  | Cc1c2ccc(N(C)c3ccnc(Nc4ccc(-c5nc6c(C(N)=O)cccc6[nH]5)c(C(F)(F)F)c4)n3)cc2nn1C | 
31 | 0.254 | 0.118 | > 10 | 9.34 | Cc1c2ccc(N(C)c3ccnc(Nc4ccc(-c5nc6c(C(N)=O)cccc6[nH]5)cc4F)n3)cc2nn1C | 
32 | > 10 | 0.0796 | > 10 | > 10 | COc1cc(N(C)c2ccc3c(C)n(C)nc3c2)nc(Nc2ccc(-c3nc4c(C(N)=O)cccc4[nH]3)cc2)n1 | 
33 | 0.235 | 0.15 | > 10 | 8.91 | Cc1cc(Nc2nccc(N(C)c3ccc4c(C)n(C)nc4c3)n2)cnc1-c1nc2c(C(N)=O)cccc2[nH]1 | 
34 | 0.188 | > 10 | > 10 | > 10 | Cc1c2ccc(N(C)c3ccnc(Nc4ccc(-c5nc6ccccc6[nH]5)c(Cl)c4)n3)cc2nn1C | 
35 | 0.213 | > 10 | > 10 | > 10 | Cc1c2ccc(N(C)c3ccnc(Nc4ccc(-c5nc6ccccc6[nH]5)c(C(F)(F)F)c4)n3)cc2nn1C | 
36 |  | 0.345 |  |  | Cc1c2ccc(N(C)c3ccnc(Nc4ccc(C(=O)Nc5nc6c(C(N)=O)cccc6[nH]5)c(C(F)(F)F)c4)n3)cc2nn1C | 
37 |  | 0.342 |  |  | Cc1c2ccc(N(C)c3ccnc(Nc4cc(F)c(-c5nc6c(C(N)=O)cccc6[nH]5)c(F)c4)n3)cc2nn1C | 
38 | 0.26 |  |  |  | Cc1c2ccc(N(C)c3ccnc(Nc4ccc(C(=O)Nc5nc6c(C(N)=O)cccc6[nH]5)cc4)n3)cc2nn1C | 
39 | > 10 | 0.0852 | > 10 | > 10 | Cc1cc(N(C)c2ccc3c(C)n(C)nc3c2)nc(Nc2ccc(-c3nc4c(C(N)=O)cccc4[nH]3)cc2)n1 | 
40 | 0.308 | 0.469 | > 10 | > 10 | Cc1c2ccc(N(C)c3ccnc(Nc4ccc(-c5ccc(-c6nc7c(C(N)=O)cccc7[nH]6)cc5)cc4)n3)cc2nn1C | 
41 | 0.266 | 0.0394 | > 10 | > 10 | COc1ccc(-c2nc3c(C(N)=O)cccc3[nH]2)cc1Nc1nccc(N(C)c2ccc3c(C)n(C)nc3c2)n1 | 
42 | > 10 |  |  |  | Cc1c2ccc(N(C)c3cc(C(F)(F)F)nc(Nc4ccc(C(=O)Nc5nc6c(C(N)=O)cccc6[nH]5)cc4)n3)cc2nn1C | 
43 |  | 0.142 |  |  | Cc1c2ccc(N(C)c3ccnc(Nc4ccc(-c5nc6c(C(N)=O)cccc6[nH]5)c(Cl)c4)n3)cc2nn1C | 
